Structures are written as SMILES.

Holding throughout (assay type): cell-based
Experiment [1] has as its system E. coli of swine origin. Nature of the experiment: Curing of antibiotic resistance (replica plating). The settings on record: for curing for amoxicillin and clavulanic acid / curing for ampicillin / curing for chloramphenicol: isolates treated with EB or IDU. As to the method: (§1) Plasmid curing of antibiotic resistant bacteria was measured as described by Lakshmi and Thomas (1989) and NCCLS (2000). Briefly, aliquots (final inoculum concentration approximately 1×10^5 CFU/ml) of Salmonella isolates, E. coli isolates, and commercial isolates of E. coli XL1-blue and E. coli RK2 were added to tubes containing 1 ml aliquots of increasing concentrations of P-YCWP or YCWP (0, 0.01, 0.1, 0.3, 0.5, 1.0, 2.0, 3.0% w/v). A control culture was established by adding bacterial isolates as described above to aliquots of increasing concentrations of mannose. Known curing agents [ethidium bromide and iododeoxyuridine (IDU)] were used as positive controls, and to provide a percent curing activity. Tubes were incubated at 35° C. for 24 hr.
(§2) Following incubation, bacterial aliquots were plated on MacConkey agar plates (master plates). Antibiotic resistance after treatment was evaluated by replica plating on MacConkey agar containing predetermined concentrations of antimicrobial agents. Minimum curing concentration (MCC) was defined as the minimum concentration of compound able to “cure” bacteria, that is, remove antibiotic resistance, within a 24 hr period. A sample was considered to contain bacteria resistant to an antibiotic when greater than 1% of a sample plated on a master plate of MacConkey agar grew on an antibiotic-containing replica plate.

Experiment [2] has as its system S. Cholerasuis (2). Put plainly: Agglutination. The settings on record: sugar 100 mM. Here is the method: (§3) E. coli and Salmonella isolates were evaluated for ability to agglutinate P-YCWP and YCWP by growing isolates into TIF slants (10 g peptone, 5 g NaCl, 5 g yeast extract and 15 g bacto agar per liter) for 24 hr. Sugar solutions (100 mM) of glucose, mannose, or fructose were prepared in 100 mM phosphate-buffered solution (PBS) at pH 7.2. Yeast cell wall preparations were suspended (1 g YCWP) into 1 liter of PBS. The grown isolates were resuspended in PBS and mixed with 0.1 ml PBS as control or 0.1 ml sugar solution (glucose, mannose, or fructose) to occupy bacterial attachment sites. For adherence tests, 10 μl of P-YCWP or YCWP suspension was placed on a series of microscope slides. The negative control was […] of PBS mixed with YCWP suspension. Bacterial suspension (10 μl) as described above was added, mixed using an orbital shaker, and observed under light microscope (100-1000× magnification). The ability of any of the sugars to inhibit or weaken agglutination was considered evidence that that sugar played a role in agglutination/attachment for that bacteria.

Experiment [3] concerns S. pullorum (1). Nature of the experiment: Agglutination. To be noted: sugar 100 mM. Here is the method:
as §3

Experiment [4] has as its system E. coli (30). Nature of the experiment: Agglutination. The settings on record: sugar 100 mM. As to the method: as §3
Experiment [5] has as its system Salmonella spp. (13). Nature of the experiment: Agglutination. The settings on record: sugar 100 mM. As to the method:
as §3

Experiment [6] has as its system E. coli XL1-blue. Put plainly: Curing / plasmid loss, narrow range plasmid strain. To be noted: FIG. 4. As to the method: as §1
(§4) Following incubation, bacterial aliquots were plated on MacConkey agar plates (master plates). Antibiotic resistance after treatment was evaluated by replica plating on MacConkey agar containing predetermined concentrations of antimicrobial agents. Minimum curing concentration (MCC) was defined as the minimum concentration of compound able to “cure” bacteria, that is, remove antibiotic resistance, within a 24 hr period. […]
(§5) Plasmids were evaluated by microbial lysis and extraction of DNA (Mini-prep System, Bio-Rad Laboratories, Hercules, Calif.), followed by electrophoretic separation on 1% agarose gel (Bio-Rad). […]

Experiment [7] has as its system E. coli ATCC 33766, plasmid pRK248clts. Nature of the experiment: Curing, broad range plasmid strain. To be noted: tetracycline-resistant determinant; data not shown. Here is the method: as §1, §2
Experiment [8] concerns S. enteritidis (ATCC 13076). Nature of the experiment: Curing / plasmid loss. The settings on record: streptomycin-resistant; 24 hr exposure, replica plating. As to the method: as §1, §4, §5

Take `CC[n+]1c(-c2ccccc2)c2cc(N)ccc2c2ccc(N)cc21` [EB, ethidium bromide]: in experiment [1], the “curing for amoxicillin and clavulanic acid” value came to 100%; the curing for ampicillin was 5%; the curing for chloramphenicol stood at 100%.

For the compound `O=C(CO)[C@@H](O)[C@H](O)[C@H](O)CO` [Fructcose, fructose], the “agglutination with YCWP or P-YCWP in presence of sugar” value in experiment [2], in experiment [3], in experiment [4] and in experiment [5] was “Negative (−)” throughout.

As for `O=c1[nH]c(=O)n([C@H]2C[C@H](O)[C@@H](CO)O2)cc1I` [IDU, iododeoxyuridine], in experiment [1] (EB or IDU treatment), the curing for neomycin result was “no curing” and the curing for tetracycline entry is “no curing”. In experiment [1], the “curing for amoxicillin and clavulanic acid” value is on record as 100%; the curing for ampicillin is 5%; the curing for chloramphenicol is on record as 100%. Also, the curing result in experiment [6] is reported as “curing was seen”. Besides, in experiment [7], the “curing of the organism carrying the broad range plasmid” value was “Neither yeast cell wall preparations nor traditional curing agents (EB, IDU) cured the organism”. Further, the curing entry in experiment [8] is given as “Neither EB nor IDU showed any curing capacity”.

Source of the values: patent publication US20090263416A1, “REDUCTION OF ANTIBIOTIC RESISTANCE IN BACTERIA” (priority 2006, published 2009).
